Legend:
Type in all cases: in vivo, mouse
[1] = test system: Lmna^H222P/H222P mice; assay: NAD+ content quantification in heart and liver of treated Lmna H222P/H222P mice; conditions: NR complemented diet 400 mg/kg/day, from 17 weeks of age for 9 weeks, vs chow-diet
Procedure: (§1) Mice were bred in an accredited animal facility (accreditation number: C-75-13-08). All experiments on mice were approved by the Comité d'éthique en expérimentation animate Charles Darwin No 5. Mice Lmna^H222P/H222P were backcrossed 8 times to 129S2/SvPasOrlRj strain mice to obtain pure genetic background. Male mice used for the studies were maintained under a 12 h light/12 h dark cycle at constant temperature (23° C.) with free access to food and water. Nicotinamide riboside (NR) complementation: Animals at 17 weeks of age were fed for 9 weeks with either a chow diet (A04: Scientific Animal Food & Engineering) or a chow diet complemented with 0.25% of NR (kindly provided by ChromaDex, Inc. California) corresponding to a dose of 400 mg/kg/day for a mouse weighing 25 g eating 4 g of food per day. […]
(§2) Fresh mouse tissues were homogenized and processed according to previous report (Sander B J, Oelshlegel F J & Brewer G J (1976) Quantitative analysis of pyridine nucleotides in red blood cells: a single-step extraction procedure. Anal. Biochem. 71: 29-36). The concentration of NAD+ in heart tissue was determined using a spectrophotometric assay at 550 nm based on an alcohol dehydrogenase cycling reaction, in which a Methyl Thiazolyl Tetrazolium (MTT) is reduced to Formazan. […]

[2] = test system: Lmna^WT/WT mice; assay: NAD+ content quantification in heart and liver of treated wild type mice; conditions: NR diet same dosage (400 mg/kg/day), 9 weeks
Procedure: as §1, §2

[3] = test system: Lmna^H222P/H222P mice; assay: Survival of Lmna H222P/H222P mice on NR diet
Procedure: Mice were bred in an accredited animal facility (accreditation number: C-75-13-08). All experiments on mice were approved by the Comité d'éthique en expérimentation animate Charles Darwin No 5. Mice Lmna^H222P/H222P were backcrossed 8 times to 129S2/SvPasOrlRj strain mice to obtain pure genetic background. Male mice used for the studies were maintained under a 12 h light/12 h dark cycle at constant temperature (23° C.) with free access to food and water. Nicotinamide riboside (NR) complementation: Animals at 17 weeks of age were fed for 9 weeks with either a chow diet (A04: Scientific Animal Food & Engineering) or a chow diet complemented with 0.25% of NR (kindly provided by ChromaDex, Inc. California) corresponding to a dose of 400 mg/kg/day for a mouse weighing 25 g eating 4 g of food per day. Nicotinamide (NAM) treatment: Animals at 17 weeks of age were injected intraperitoneally (IP) every two days (q.a.d.) for 9 weeks with either physiologic serum or physiologic serum added with NAM at 50 mg/ml corresponding to a dose of 500 mg/kg for a mouse weighing 25 g.
For survival analysis, Lmna^H222P/H222P mice were fed chow supplemented with 0.25% nicotinamide riboside when they were 17 weeks of age and continued until they suffered from significant distress or died. p≤0.001

[4] = test system: TAC mice; assay: RT-qPCR of Nmrk2, Nmrk1, Nampt mRNA after TAC; conditions: 6 weeks after surgery, NR 400 mg/kg/day
Procedure: Transverse aorta constriction was performed in 2 month-old male mice under anesthesia (ketamine 100 mg/kg, xylazin 16 mg/kg). Skin was opened above the sternum and the upper part of the sternum was cut on a length of 2 mm allowing the mouse to breath without the need of a ventilator. A surgical suture was passed under the aortic cross between the right brachiocephalic (innominate) artery and left common carotid artery and a 27-½ gauge blunt needle was placed parallel to the wall of the aortic cross as a calibrator. Two loose knots were tied around the aortic cross and the needle. The first knot was quickly tied against the needle, followed by the second and the needle was promptly removed in order to produce a constriction of 0.4 mm in diameter. In sham, mice the procedure was the same except for the constriction of the aorta. NR treatment was started 2 days after the TAC or SHAM surgery.
cDNAs were reverse transcribed from RNA (1.5 μg) extracted in TRIzol (Thermofisher) from cell cultures and tissues using the Superscript II Reverse Transcriptase (Life Technologies). Quantitative PCR was carried out on a Light Cycler 480 (Roche Diagnostics) using Fast Start SYBR Green Master (Roche Diagnostics). Quantification of gene expression was calculated as R=2^ΔCt(Ref Cp−target Cp), with Hprt used as a as reference. Primers were designed using the NCBI Primer-BLAST software. […]

NC(=O)c1ccc[n+]([C@@H]2O[C@H](CO)[C@@H](O)[C@H]2O)c1 [NR, nicotinamide riboside]
NAD+ content in liver and heart [1]: increase of their NAD+ content in both the liver and the heart | cellular NAD+ content in liver and heart [2]: same significant benefit | mice that died over the course of the treatment protocol ([3]; NR diet 400 mg/kg/day, 9 weeks from 17 weeks of age, 38% of chow-diet mice died): none | age at which mice started to die ([3]; pilot survival study, NR feeding from 17 weeks of age, chow-diet 30 weeks): 38 weeks | mean of survival ([3]; pilot survival study, NR feeding from 17 weeks of age, chow-diet 33 weeks): 39 weeks | Nmrk2, Nmrk1 and Nampt mRNA levels [4]: no impact
